Where “and” joins values, the source holds several entries; their conditions need not be identical. Equal values may be shown once.
What was measured:
human progenitor cells = test: DNA synthesis (3H-Thymidine incorporation) in micromass cultures; type: cell-based; conditions: FIG. 5
Experimental: FIG. 5. A bar graph of the concentration dependent effects of Pentosan Polysulfate (PPS) on DNA synthesis by human progenitor cells, as determined by the incorporation of ^3H-Thymidine into macromolecular DNA, after 4 day micromass cultures. *=p<0.05; **=p<0.005 relative to controls.
Ten μl of progenitor cells (7×10^6 cells/ml) were seeded into each well of a 24-well culture plate. After incubation at 37° C. in moist 5% CO2/95% air for 2-3 hours, 900 μl of DMEM-High medium (+10% FBS) and indicated concentrations PPS dissolved in DMEM-High medium were added slowly to the wells. The final PPS concentration were 0, 0.1, 0.5, 1.0, 2.5, 5.0, 10.0, 20.0 μg/ml, respectively. Every PPS concentration was established in triplicate. The cultures were allowed to proceed for 3 days. On day 4, to each well of the 24-well plate was added 640 μl of DMEM-High (+10% FBS), 80 μl of 10×PPS solution and 80 μl of 10 μCi/ml ^3H-Thymidine solution to produce a final ^3H-Thymidine concentration of […] and final PPS concentrations as indicated. The cultures were then incubated in 37° C., 5% CO2 for a further 22 hours, the medium was removed and 200 μl of 1 mg/ml Collagenase solution [Collagenase buffer: 66.7 mM NaCl, 6.7 mM KCl, 4.8 mM CaCl2.2H2O, 10 mM HEPES (pH7.4)] was added to each well. […] The radioactivity of ^3H incorporated into the DNA of proliferating cells was measured by scintillation counting.

[1] = tested on: Murine Progenitor Cell (C3H10T1/2); test: Proteoglycan biosynthesis (35S-GAG) and DNA content in monolayer cultures; type: cell-based; conditions: for biosynthesis of proteoglycans: all concentrations of PPS
Experimental: FIG. 9. Concentration dependent effects of Pentosan Polysulfate (PPS) on Murine Progenitor Cell (progenitor cells C3H10T1/2) biosynthesis of Proteoglycans (PGs) and DNA content when grown in monolayer cultures. Data shown=Means±SD.
Murine Progenitor cells (cell lines C3H10T1/2 or ATDC5) purchased from RIKEN Cell Bank (Tsukuba, Japan) or human immunoselected Stro-1+ Progenitor cells (Mesoblast Ltd, Melbourne, Australia) were seeded into 50 mL plastic culture flasks containing 1:1 high glucose DMEM/Ham's F-12 medium (Invitrogen) supplemented with 10% FBS (Sigma) and incubated at 37° C., in 5% CO2. After confluence was reached, progenitor cells were released by trypsinization and harvested by centrifugation. Cells were inoculated to 96-well or 24-well plates at a density of 3×10^4 cells or 2×10^5 cells per well. After 48-hour incubation at 37° C., 5% CO2 confluent monolayers were normally established. The medium was then changed to defined medium, which contained different concentrations of PPS with and without rhNC4 and 5 μCi/ml of ^35S—H2SO4 (PerkinElmer, USA). The experiments were generally terminated after 48 hours incubation when proteoglycan biosynthesis was determined by measuring the incorporation of ^35SO4 into the glycosaminoglycans (^35S-GAGs) as described below.
(A) 96-well plates: Cultures were subjected to proteolytic digestion with papain to release glycosaminoglycans. The papain stock solution used contained 2.5 mg/ml papain (Sigma), 7.9 mg/ml cysteine-HCl (Sigma) in papain digest buffer (0.1M NaAc, 5 mM EDTA, pH6.0). 50 μl of papain stock solution was added to each well. The plate was sealed using plastic sheeting and incubated at 65° C. for 2 hours. […]
The ^35SO4-GAGs in the remained solution (200 ul) were precipitated with Cetyl Pyridinium Chloride (CPC) (Sigma). […] Following addition of 3 ml scintillation liquid and vortexing the radioactivity of the ^35S-GAG-CPC complexes were in the samples were measured by scintillation counting (PerkinElmer, USA) and recorded as DPM/sample. The data then was then normalised for DNA and expressed as ^35-S-GAGs/μg DNA.
(B) 24-well plates: After 48 hours incubation in the defined media, the media per well (containing soluble ^35S-labelled proteoglycans) was separated from the cells and transferred to a 2.0 ml microfuge tube. […] The 35S-GAG-CPC complexes collected through the fibre filter and the radioactivity of 35S-GAG was measured using the liquid scintillation analyser as describe above. The cells were extracted with the RNA reagent and aliquots used to determine gene expression and/or the DNA content was measured by the fluorometric assay and the results expressed as ^35-S-GAGs/μg DNA. […]

pentosan polysulfate [PPS]
cell division (3H-Thymidine incorporation into DNA) (human progenitor cells; 1-5 micrograms/mL): Marked stimulation of cell division | proliferation (3H-Thymidine incorporation into DNA) (human progenitor cells; all PPS concentrations (0.1-20 μg/ml)): increased proliferation | PPS concentration best with regard to DNA content ([1]; FIG. 9): 5 μl/ml and 10 μl/ml | PPS concentration best with regards to PG synthesis ([1]; FIG. 9): 10 μl/ml | biosynthesis of proteoglycans ([1]; FIG. 9): increased | biosynthesis of proteoglycans ([1]; FIG. 9, listed as polysulfated polysaccharides): chondrogenic promoting effect

Source: patent publication US9888679B2, “Protection of progenitor cells and regulation of their differentiation” (Proteobioactives Pty Ltd, priority 2007, dated 2018)
